According to US11925653B2, “Combination therapy effective against microorganisms, including drug resistant microorganisms” (Fleurir ABX LLC, priority 2021, dated 2024):

Key:
[1] = system: P. mirabilis; experiment: MIC and synergy checkerboard assay, broth microdilution (uUTI species); assay type: cell-based, Proteus mirabilis
Experimental: Minimum inhibitory concentration (MIC) assays were performed in a manner as described for the CLSI Agar dilution or broth microdilution assay guideline (see, Clinical Laboratory Standards Institute, 2009, Methods for Dilution Antimicrobial Susceptibility Tests for Bacteria That Grow Aerobically; Approved Standard, Eighth Edition, M07-A8, Vol. 29, No. 2). For example, known antibiotics or the compositions described herein were dissolved, serially diluted, and then added to tempered molten Mueller-Hinton Agar before pouring of plates; or were dissolved, and then serially diluted in 100 μL cation-adjusted Mueller-Hinton broth across the assay plate in the classical 2-fold geometric format. D-glucose-6-phosphate was included as a medium supplement in both agar, and broth at a concentration of 50 mg/L. Antibiotic concentrations for agar assay were at the final concentration. Antibiotic concentrations for broth microdilution in each well at this point were double what the final assay concentration would be. Bacterial inocula were prepared by swabbing several colonies from a fresh agar plate, and re-suspending the bacteria to a density that was the 0.5 McFarland turbidity standard, considered close or equivalent to 1×10^8 CFU/mL. For agar dilution, a steers replicator was utilized to deliver 1×10^4 CFU/spot. For broth microdilution, the bacterial inocula were diluted in the cation-adjusted Mueller-Hinton broth to 1×10^6 CFU/mL, and 100 μL was overlayered onto the wells containing a diluted antibiotic or a composition described. Following incubation as per the guideline, results were recorded as growth or no growth, and the lowest concentration of the antibiotic or the composition described where no growth was observed was declared the MIC.
To assay for synergy of antibacterial combinations, a recognized synergy checkerboard assay, adapted from the CLSI guideline microdilution assay, was utilized (see Eliopoulos, G. M., and Moellering, R. C, Jr., 1996. Antimicrobial Combinations, pg. 330-396. In: Lorian, V. (Ed.), Antibiotics in Laboratory Medicine, 4th Ed., Williams & Wilkins; Baltimore, MD). In the case of the agar dilution method, each antibiotic alone, or in combination was added to agar prior to plate pouring. For broth microdilution, the first compound (or antibiotic or agent) was diluted in cation-adjusted Mueller-Hinton broth across the plate along the horizontal axis with each well in a row containing 50 μL of an identical concentration of compound (or antibiotic). Along the vertical axis a dilution series of the second compound (or antibiotic) was dispensed. At this point the drug concentrations are four-fold of the final desired working concentration. […] Following incubation, wells with no growth are noted. […]

[2] = system: bacteria; experiment: spontaneous mutational frequency (SMF; resistance); assay type: cell-based; conditions: resistant colonies observed divided by total inoculum; plates with 4-fold MIC of the combination or 2-fold MIC of each antibiotic alone
Experimental: MIC was further evaluated to confirm resistance, and the spontaneous mutational frequency was calculated based on the following equation: […]
The spontaneous mutational frequency (SMF; resistance) was calculated as the number of resistant colonies observed divided by the total inoculum.

C[C@@H]1O[C@@H]1P(=O)(O)O [Fosfomycin, cis-1,2-epoxypropyl phosphonic acid]
MIC (Combo as F/DP/SM; second compound as DP/SM) ([1]; P. mirabilis 1071120): 1 µg/mL | MIC (Combo as F/DP/SM; second compound as DP/SM) ([1]; P. mirabilis 1124256): 64 µg/mL | MIC (Combo as F/DP/SM; second compound as DP/SM) ([1]; P. mirabilis 1128681): 4 µg/mL | MIC (Combo as F/DP/SM; second compound as DP/SM) ([1]; P. mirabilis 1184042): 4 µg/mL | frequency of spontaneous mutants resistant (spontaneous mutational frequency, SMF) [2]: 6.33×10^−6
